One assay deals with thrombin (Bos taurus, UniProt P00735). Description: Inhibition of thrombin (dissociation constant Ki). It counts as biochemical.
For a further assay, the target named is factor Xa (Bos taurus, UniProt P00743). Description: Inhibition of factor Xa (dissociation constant Ki). The conditions noted are these: Tables 19-25; read-out: Ki, Factor Xa. It counts as biochemical.

The source of these data is patent publication US5518735A, “Meta-substituted phenylalanine derivatives” (priority 1990, dated 1996).

Where a name gives a salt, the structure may show the parent alone.

For orientation: Ki means the equilibrium dissociation constant of an inhibitor or competing ligand from its target.

Sequence of factor Xa (P00743 234-492 limits assumed): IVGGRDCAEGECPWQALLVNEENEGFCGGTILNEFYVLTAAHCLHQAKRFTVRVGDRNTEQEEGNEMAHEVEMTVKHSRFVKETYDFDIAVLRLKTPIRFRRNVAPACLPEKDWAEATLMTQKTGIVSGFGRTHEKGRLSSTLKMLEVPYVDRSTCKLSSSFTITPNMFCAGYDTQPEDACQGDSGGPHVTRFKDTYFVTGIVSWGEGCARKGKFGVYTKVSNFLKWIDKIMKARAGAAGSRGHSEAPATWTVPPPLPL
Sequence of factor Xa (P00743 41-180 partner limits assumed): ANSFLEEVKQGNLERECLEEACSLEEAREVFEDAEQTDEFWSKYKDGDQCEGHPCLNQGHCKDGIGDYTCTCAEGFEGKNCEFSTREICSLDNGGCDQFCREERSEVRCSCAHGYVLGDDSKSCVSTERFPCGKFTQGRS

For the compound `N=C(NO)c1cccc(CC(NS(=O)(=O)c2ccc3ccccc3c2)C(=O)N2CCC(C(=O)O)CC2)c1` (racemic) [Compound 189, N-α-(2-Naphthylsulfonyl)-3-oxamidino-(D,L)-phenylalanyl-isonipecotic acid hydroiodide], the results for the Ki at thrombin and at factor Xa were 270 µM and 670 µM, respectively.

Take `Nc1cccc(CC(NS(=O)(=O)c2ccc3ccccc3c2)C(=O)N2CCCCC2C(=O)O)c1` (racemic) [Compound 204]: the Ki amounted to 130 µM at thrombin and 450 µM on factor Xa.

For `CC1CCCCN1C(=O)C(Cc1cccc(C(=N)N)c1)NS(=O)(=O)c1ccc2ccccc2c1` (racemic) [Compound 32], the figures for the inhibition constant (Ki) at thrombin and at factor Xa were 0.13 µM and 74 µM, respectively.

Regarding `N=C(N)c1cccc(CC(NS(=O)(=O)c2cccc3cccnc23)C(=O)N2CCC(C(=O)O)CC2)c1` (racemic) [Compound 181], the Ki is 127 µM on thrombin and 260 µM on factor Xa.

Consider `N=C(NO)c1cccc(CC(NS(=O)(=O)c2ccc3ccccc3c2)C(=O)N2CCCCC2C(=O)O)c1` (racemic) [Compound 188, N-α-(2-Naphthylsulfonyl)-3-oxamidino-(D,L)-phenylalanyl-(D,L)-pipecolic acid hydroiodide], for which the results for the Ki on thrombin and at factor Xa were 330 µM and 410 µM, respectively.

Consider `COC(=O)CNC(=O)C1CCCCN1C(=O)C(Cc1cccc(C(=N)N)c1)NS(=O)(=O)c1ccc2ccccc2c1` (racemic) [Compound 117, N-α-(2-Naphthylsulfonyl-3-amidino-(D,L)-phenylalanyl-(D,L)-pipecolyl-glycine-methyl ester hydrochloride], for which the Ki at thrombin came to 0.88 µM; at factor Xa it was 38 µM.

As for `N=C(N)c1cccc(CC(NS(=O)(=O)c2cccc3cccnc23)C(=O)N2CCCCC2C(=O)O)c1` (racemic) [Compound 180], the Ki is 16 µM at thrombin and 380 µM at factor Xa.

As to `CC1CCN(C(=O)C(Cc2cccc(C(=N)NO)c2)NS(=O)(=O)c2ccc3ccccc3c2)CC1` (racemic) [Compound 187, N-α-(2-Naphthylsulfonyl)-3-oxamidino-(D,L)-phenylalanine-4-methylpiperidide hydroiodide], the figures for the Ki on thrombin and on factor Xa were 2.8 µM and greater than 1000 µM, respectively.

Turning to `N=C(N)c1cccc(CC(NS(=O)(=O)c2ccc3ccccc3c2)C(=O)N2CC3CCCCC3CC2C(=O)O)c1` (racemic) [Compound 151, N-α-(2-Naphthylsulfonyl)-3-amidino-(D,L)-phenylalanyl-decahydroisoquinoline-3-carboxylic acid hydrochloride], the Ki turned out to be 0.12 µM at thrombin and 54 µM at factor Xa.

For the compound `N=C(N)c1cccc(CC(NC(=O)CNS(=O)(=O)c2ccc3ccccc3c2)C(=O)N2CCC(C(=O)O)CC2)c1` (racemic) [Compound 166], the figures for the Ki on thrombin and on factor Xa were 46 µM and 97 µM, respectively.

For the compound `N=C(N)c1cccc(CC(NS(=O)(=O)c2ccc3ccccc3c2)C(=O)N2CCCCC2C(=O)NCC(=O)O)c1` (racemic) [Compound 116, N-α-(2-Naphthylsulfonyl)-3-amidino-(D,L)-phenylalanyl-(D,L)-pipecolyl-glycine hydrochloride], the Ki at thrombin was 1.3 µM; at factor Xa it was 110 µM.

As to `Nc1cccc(CC(NS(=O)(=O)c2ccc3ccccc3c2)C(=O)N2CCC(C(=O)O)CC2)c1` (racemic) [Compound 205], the Ki at thrombin and at factor Xa was 720 µM in each case.

Consider `N=C(N)c1cccc(CC(NC(=O)CNS(=O)(=O)c2ccc3ccccc3c2)C(=O)N2CCCCC2C(=O)O)c1` (racemic) [Compound 165], for which the Ki was 61 µM on thrombin and 48 µM at factor Xa.

Regarding `NCc1cccc(CC(NS(=O)(=O)c2ccc3ccccc3c2)C(=O)N2CCCCC2C(=O)O)c1` (racemic) [Compound 185, N-α-(2-Naphthylsulfonyl)-3-aminomethyl-(D,L)-phenylalanyl-(D,L)-pipecolic acid], the results for the Ki on thrombin and on factor Xa were 50 µM and 140 µM, respectively.
